According to patent US9061004B2, “15-PGDH in colon cancer” (Case Western Reserve University, priority 2009, dated 2015):

Tests used:
[1] = system: 15-PGDH mRNA; conditions: cited from earlier work
[2] = system: PGE2; experiment: Colonic mucosal PGE2 levels by LC/MS/MS after 2 weeks of celecoxib diet; assay type: in vivo, mouse; conditions: 2 weeks celecoxib diet, mean ± SEM
Protocol: To further investigate the mechanism of celecoxib's dependence on 15-PGDH, we determined PGE2 levels in colonic mucosa of FVB mice under different experimental conditions. Consistent with the role of 15-PGDH in mediating prostaglandin degradation, 15-PGDH gene knockout essentially doubled FVB colonic PGE2 levels (9.1±1.5 ng/mg protein in knockouts versus 5.70±0.8 ng/mg protein in controls, P=0.04) (FIG. 1D). […] In contrast, in 15-PGDH knockout mice the biochemical activity of celecoxib was much attenuated, with the drug lowering PGE2 levels to only 4.7±0.8 ng/mg protein. […] In overview, the efficacy of celecoxib in lowering colonic PGE2 levels in these different models closely paralleled the drug's anti-tumor activity (FIG. 1D versus FIG. 1A, 1B), and mice that lacked 15-PGDH equally acquired resistance to celecoxib's biochemical activity of lowering colonic PGE2 and to celecoxib's phenotypic effect of preventing colon tumors. Celecoxib resistance of 15-PGDH null mice was not due to any change in drug absorption or catabolism, as tissue levels of celecoxib were indistinguishable between drug treated 15-PGDH wild-type and null mice (39.5±9.7 versus 37.7±7.6 ng/mg protein, P=0.7) (FIG. 2A). […] Rather, the effective depletion of colonic PGE2 required the COX-2 inhibitor drug to act in concert with the independent prostaglandin degrading activity of 15-PGDH. […]

[3] = system: colorectal adenomas; experiment: Adenoma Prevention with Celecoxib (APC) trial, recurrent adenomas at 36 months; assay type: in vivo, human; conditions: 16 individuals, 36 months of daily celecoxib
Text: To test this hypothesis, we examined frozen biopsies of rectal mucosa obtained from 16 individuals at the time of their enrollment in the Adenoma Prevention with Celecoxib (APC) trial (Bertagnolli, M. M. et al., (2006) N Engl J Med 355, 873-84). These individuals were all at high risk for colon adenoma development based on having had multiple colon adenomas and/or adenomas greater than 5 mm in diameter prior to their enrollment. Following clearing of their colonic adenomas by colonoscopy, each individual received 36-months of daily treatment with celecoxib (Bertagnolli, M. M. et al., (2006) N Engl J Med 355, 873-84). […] In total 9 new adenomas were detected in these patients (FIG. 3). 15-PGDH levels among individuals who developed new adenomas were lower than 15-PGDH levels among individuals who remained adenoma free (P=0.04) (FIG. 3). […] The relationship of low 15-PGDH level to celecoxib resistance becomes even stronger if analyzed in terms of the numbers of new adenomas that individuals developed, with 8 of the 9 adenomatous polyps that recurred during celecoxib treatment arising in individuals with colonic 15-PGDH values below the cohort median (P=0.01), and with all 9 new adenomas arising in individuals with colonic 15-PGDH below the cohort mean (P=0.001) (FIG. 3). […]

[4] = Celecoxib tissue levels in colonic mucosa by LC/MS/MS; assay type: in vivo, mouse; conditions: 2 weeks celecoxib supplemented diet, mean ± SEM
Protocol: Mouse studies were conducted in the Case Animal Resource Center under a protocol approved by the Institutional Animal Care and Use Committee. 15-Hydroxyprostaglandin dehydrogenase (15-PGDH) knockout mice on a C57BL/6J background were generated as described previously (Myung, S. J. et al., (2006) Proc Natl Acad Sci USA 103, 12098-102; Coggins, K. G. et al, (2002) Nat Med 8, 91-2) and were bred to generation F8 onto an FVB/N (Jackson Laboratory, Bar Harbor, Me.) background, with genotyping done as previously described (Myung, S. J. et al., (2006) Proc Natl Acad Sci U S A 103, 12098-102). 15-PGDH +/− mice generation F8 were intercrossed and siblings of 15-PGDH +/+ and −/− genotypes were selected out for studies with AOM and celecoxib. Eight- to 12-week-old mice were administered AOM by i.p. injection once weekly for 6 weeks at 10mg/kg dose (Sigma Chemical Co., St. Louis, Mo.). Mice were euthanized 24 weeks after the last AOM injection. […]
Following 2 weeks of control or celecoxib supplemented diet mice were euthanized. […] The celecoxib level in the samples was determined by LC/MS/MS. […] Celecoxib was detected and quantified by operating the mass spectrometer in electrospray negative ion mode and monitoring the transition m/z 380.2>316.1. Quantification was done by comparing the sample peak areas to a standard curve and concentration of celecoxib was normalized by protein concentration.

[5] = system: AOM induced colon tumors; experiment: AOM induced colon tumor development in FVB mice on dietary celecoxib; assay type: in vivo, mouse; conditions: for AOM induced colon tumors per mouse / AOM induced large colon tumors (>1 mm) per mouse: mean ± SEM
Text: To conduct this study FVB mice were selected, chosen because at baseline this mouse strain is sensitive to AOM induced colon tumors (Nambiar, P. R. et al., (2003) Int J Oncol 22, 145-50). In 15-PGDH wild-type FVB mice, AOM induced 2.3±0.4 tumors per mouse colon (FIG. 1A, 1C), which on histology review were all adenomatous lesions. As in human trials, administering dietary celecoxib protected wild-type FVB mice against colon tumor development, reducing adenoma development to 0.7±0.3 tumors per mouse (P=0.003) (FIG. 1A, 1C). Furthermore, while nearly all tumors arising in control mice exceeded 1 mm in size, tumors in celecoxib treated mice rarely reached this size (2.2±0.4 versus 0.3±0.1, P<0.0001) (FIG. 1B).
Dietary celecoxib could thus near completely protect wild-type FVB mice from developing colon tumors. […] Thus, celecoxib treated 15-PGDH null mice developed 5.5-fold more colon adenomas than did their celecoxib treated 15-PGDH wild-type littermates (3.9±0.8 versus 0.7±0.3, P=0.0001) (FIG. 1A, 1C). Moreover, all colonic adenomas arising in celecoxib treated knockout mice were large, each exceeding 1 mm in size; whereas, large tumors were nearly completely absent in celecoxib treated 15-PGDH wild-type mice (3.9±0.8 large tumors per knockout mouse versus 0.3±0.1 per wild-type, P=0.0001) (FIG. 1B, 1C). By several measures, 15-PGDH knockout mice were almost completely resistant to the colon tumor prevention effects of celecoxib. […] Moreover, colon tumor development in celecoxib treated 15-PGDH knockout mice actually exceeded that of drug untreated wild-type mice (3.9±0.8 versus 2.2±0.4 respectively, for tumors >1 mm in size, P=0.04; and, 3.9±0.8 versus 2.3±0.4 respectively tumors of any size, P=0.06) (FIG. 1A, 1B). We conclude that celecoxib mediated colon tumor prevention requires concurrent presence of the prostaglandin inactivating activity of colonic 15-PGDH, and that 15-PGDH loss confers in vivo resistance to this drug effect.
Mouse studies were conducted in the Case Animal Resource Center under a protocol approved by the Institutional Animal Care and Use Committee. 15-Hydroxyprostaglandin dehydrogenase (15-PGDH) knockout mice on a C57BL/6J background were generated as described previously (Myung, S. J. et al., (2006) Proc Natl Acad Sci USA 103, 12098-102; Coggins, K. G. et al, (2002) Nat Med 8, 91-2) and were bred to generation F8 onto an FVB/N (Jackson Laboratory, Bar Harbor, Me.) background, with genotyping done as previously described (Myung, S. J. et al., (2006) Proc Natl Acad Sci U S A 103, 12098-102). 15-PGDH +/− mice generation F8 were intercrossed and siblings of 15-PGDH +/+ and −/− genotypes were selected out for studies with AOM and celecoxib. Eight- to 12-week-old mice were administered AOM by i.p. injection once weekly for 6 weeks at 10mg/kg dose (Sigma Chemical Co., St. Louis, Mo.). Mice were euthanized 24 weeks after the last AOM injection. After euthanizing, the colons were opened longitudinally, rinsed with ice-cold PBS, and examined under a dissecting microscope to identify all tumors. Tumors were resected, fixed in 10% neutral buffered formalin, and paraffin-embedded for histologic examination. All mice received an AIN-76A diet (Harlan Teklad, Madison, Wis.). The diet of celecoxib treated mice was supplemented with 1250 mg/kg of this agent (LKT laboratories, St. Paul, Minn.) (Williams, C. S. et al., (2000) Cancer Res 60, 6045-51). In AOM studies, celecoxib supplementation was initiated starting the day of first AOM injection and continued throughout the lifetime of the mouse. In studies of colonic prostaglandin levels celecoxib was administered to a cohort of 8-12 week old mice continuously for 2 weeks, at which time mice were euthanized.
Prostaglandin and celecoxib levels were log transformed in order to be approximately normally distributed for analysis with a generalized linear regression model with contrasts, generating two-sided P-values. […]

Tissue level of celecoxib in colonic mucosa ([4]; 15-PGDH null mice)	Tissue level of celecoxib in colonic mucosa ([4]; 15-PGDH wild-type mice)	Structure (SMILES)	Effect on 15-PGDH mRNA levels [1]	Colonic mucosal PGE2 level ([2]; 15-PGDH knockout FVB mice)	Colonic mucosal PGE2 level ([2]; 15-PGDH wild-type FVB mice)	Total new adenomas detected [3]	AOM induced colon tumors per mouse ([5]; 15-PGDH knockout (null) FVB mice, dietary celecoxib)	AOM induced large colon tumors (>1 mm) per mouse ([5]; 15-PGDH knockout FVB mice, dietary celecoxib)	AOM induced colon tumors per mouse ([5]; 15-PGDH wild-type FVB mice, dietary celecoxib 1250 mg/kg diet)	AOM induced large colon tumors (>1 mm) per mouse ([5]; 15-PGDH wild-type FVB mice, dietary celecoxib)	Prevention of AOM induced tumors >1 mm in size ([5]; FVB mice (15-PGDH wild-type))	Colon adenomas in celecoxib treated 15-PGDH null mice relative to celecoxib treated wild-type littermates ([5]; null versus wild-type, both celecoxib treated)
		C#Cc1cccc(Nc2ncnc3cc(OCCOC)c(OCCOC)cc23)c1 [erlotinib]	induce 15-PGDH mRNA levels									
37.7±7.6 ng/mg protein	39.5±9.7 ng/mg protein	Cc1ccc(-c2cc(C(F)(F)F)nn2-c2ccc(S(N)(=O)=O)cc2)cc1 [celecoxib]		4.7±0.8 ng/mg protein	1.6±0.4 ng/mg protein	9	3.9±0.8	3.9±0.8 large tumors per knockout mouse	0.7±0.3 tumors per mouse	0.3±0.1	85%	5.5 fold
